Source: ChEMBL document CHEMBL1201862, “PubChem BioAssay data set” (2004)
Blank lines part the entries; values can stand above or below the molecule they belong to. Active and inactive are the calls of the source.

What was measured:
[1] = target: Voltage-gated inwardly rectifying potassium channel KCNH2 (Homo sapiens, UniProt Q12809); settings: Potency;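 also: confirmatory quantitative high-throughput screen measuring inhibition of hERG channel activity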
[2] = target: Acyl-homoserine lactone acylase PvdQ (Pseudomonas aeruginosa (strain LESB58), UniProt Q9I194); assay: P. aeruginosa PvdQ acylase inhibitors, dose response, biochemical, fluorescence, plate reader and imaging, cherry-picks (AID 493231)
Acyl-homoserine lactone acylase PvdQ, sequence (Q9I194 24-193 limits assumed): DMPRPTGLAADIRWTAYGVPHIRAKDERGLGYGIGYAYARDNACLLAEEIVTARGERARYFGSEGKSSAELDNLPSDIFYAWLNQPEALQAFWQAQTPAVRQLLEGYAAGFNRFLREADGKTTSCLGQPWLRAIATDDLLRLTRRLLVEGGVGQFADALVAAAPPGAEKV
Acyl-homoserine lactone acylase PvdQ, sequence (Q9I194 217-762 limits assumed): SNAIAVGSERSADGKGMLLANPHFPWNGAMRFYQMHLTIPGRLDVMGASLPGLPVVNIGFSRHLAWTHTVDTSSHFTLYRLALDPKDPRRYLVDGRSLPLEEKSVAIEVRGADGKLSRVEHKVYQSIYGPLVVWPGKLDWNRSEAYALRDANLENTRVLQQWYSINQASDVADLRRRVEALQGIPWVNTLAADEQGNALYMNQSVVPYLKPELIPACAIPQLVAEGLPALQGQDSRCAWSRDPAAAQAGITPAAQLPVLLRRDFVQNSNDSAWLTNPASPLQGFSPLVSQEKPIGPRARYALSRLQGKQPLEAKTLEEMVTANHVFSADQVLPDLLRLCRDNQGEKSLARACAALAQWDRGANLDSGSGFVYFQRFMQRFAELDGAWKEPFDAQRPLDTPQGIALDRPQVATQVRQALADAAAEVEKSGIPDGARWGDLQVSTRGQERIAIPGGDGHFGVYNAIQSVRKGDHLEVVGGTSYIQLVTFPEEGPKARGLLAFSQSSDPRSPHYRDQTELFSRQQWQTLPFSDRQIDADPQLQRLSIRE

[3] = system: HeLa; assay: HeLa cell cytotoxicity, dose response, cytotoxicity control, 48 h, plate reader, cherry-picks (AID 504942); assay type: functional, cell-based; settings: Homo sapiens
[4] = system: Escherichia coli; assay: microbe, parasite or virus in culture
[5] = target: T1, Microphthalmia-associated transcription factor (Homo sapiens, UniProt O75030); assay: TRPM1 promoter luciferase signal decrease, dose response, MITF inhibitor project, cell-based, SK-MEL-5, cherry-picked, set 3 (AID 493073); assay type: functional
T1 sequence (O75030 whole entry): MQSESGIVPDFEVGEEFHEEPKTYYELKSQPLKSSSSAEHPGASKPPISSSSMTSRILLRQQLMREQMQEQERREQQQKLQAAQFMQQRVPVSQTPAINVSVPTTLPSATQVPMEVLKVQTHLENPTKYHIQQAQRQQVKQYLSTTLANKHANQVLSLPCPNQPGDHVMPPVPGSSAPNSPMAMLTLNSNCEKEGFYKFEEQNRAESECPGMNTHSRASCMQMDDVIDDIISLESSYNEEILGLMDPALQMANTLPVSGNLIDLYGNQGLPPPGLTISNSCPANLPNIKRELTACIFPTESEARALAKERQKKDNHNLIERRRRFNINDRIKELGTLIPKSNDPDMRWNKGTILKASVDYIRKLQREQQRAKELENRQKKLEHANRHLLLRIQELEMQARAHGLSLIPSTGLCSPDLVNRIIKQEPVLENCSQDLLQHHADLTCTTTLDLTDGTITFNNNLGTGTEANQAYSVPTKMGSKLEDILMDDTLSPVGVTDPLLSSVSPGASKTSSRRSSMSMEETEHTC

[6] = system: A-375; assay: A375 melanoma cell viability reduction, dose response, counter-screen for MITF modulator project, cherry-pick samples, set 2 (AID 540335); assay type: functional, cell-based; settings: Homo sapiens
[7] = system: A-375; assay: MITF: Counter assay: A375 proliferation Measured in Cell-Based System Using Plate Reader - 2084-03_Inhibitor_Dose_DryPowder_Activity. [Related pubchem assays (depositor defined):AID488944]; assay type: functional; settings: Homo sapiens
[8] = target: T2, Hexokinase HKDC1 (Homo sapiens, UniProt Q2TB90); assay: HKDC1 hexokinase inhibitors, SAR follow-up, biochemical, set 2 (AID 588355); assay type: functional
T2 sequence (Q2TB90 whole entry): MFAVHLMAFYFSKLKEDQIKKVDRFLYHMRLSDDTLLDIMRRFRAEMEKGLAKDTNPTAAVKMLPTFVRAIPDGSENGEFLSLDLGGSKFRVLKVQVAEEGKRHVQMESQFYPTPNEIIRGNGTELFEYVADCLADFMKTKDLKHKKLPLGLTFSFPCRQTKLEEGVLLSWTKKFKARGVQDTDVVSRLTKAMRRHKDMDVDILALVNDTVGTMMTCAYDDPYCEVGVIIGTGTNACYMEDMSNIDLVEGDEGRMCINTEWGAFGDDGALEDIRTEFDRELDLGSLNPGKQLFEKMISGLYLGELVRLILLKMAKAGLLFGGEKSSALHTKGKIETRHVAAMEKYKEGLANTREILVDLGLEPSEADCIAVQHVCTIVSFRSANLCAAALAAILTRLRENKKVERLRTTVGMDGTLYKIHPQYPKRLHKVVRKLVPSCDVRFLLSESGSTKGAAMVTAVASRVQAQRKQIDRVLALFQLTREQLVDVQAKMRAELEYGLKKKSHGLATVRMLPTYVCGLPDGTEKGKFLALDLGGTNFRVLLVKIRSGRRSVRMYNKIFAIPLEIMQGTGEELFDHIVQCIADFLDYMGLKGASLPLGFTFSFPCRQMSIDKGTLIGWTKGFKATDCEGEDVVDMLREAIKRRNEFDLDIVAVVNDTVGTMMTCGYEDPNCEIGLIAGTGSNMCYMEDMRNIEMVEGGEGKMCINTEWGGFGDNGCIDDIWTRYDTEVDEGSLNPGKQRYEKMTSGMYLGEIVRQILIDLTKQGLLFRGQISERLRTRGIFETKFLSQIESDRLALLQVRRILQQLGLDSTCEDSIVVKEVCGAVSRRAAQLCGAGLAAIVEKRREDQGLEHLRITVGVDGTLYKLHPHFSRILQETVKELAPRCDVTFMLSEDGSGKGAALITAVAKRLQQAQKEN

[9] = target: T3, Hexokinase-1 (Homo sapiens, UniProt P19367); assay: HK1 enzyme inhibition by HKDC1 hits, SAR follow-up, selectivity assay for HKDC1 inhibitor project, biochemical, set 2, resazurin fluorescence coupled readout (AID 588356); assay type: functional
T3 sequence (P19367 whole entry, the tested form may be a part): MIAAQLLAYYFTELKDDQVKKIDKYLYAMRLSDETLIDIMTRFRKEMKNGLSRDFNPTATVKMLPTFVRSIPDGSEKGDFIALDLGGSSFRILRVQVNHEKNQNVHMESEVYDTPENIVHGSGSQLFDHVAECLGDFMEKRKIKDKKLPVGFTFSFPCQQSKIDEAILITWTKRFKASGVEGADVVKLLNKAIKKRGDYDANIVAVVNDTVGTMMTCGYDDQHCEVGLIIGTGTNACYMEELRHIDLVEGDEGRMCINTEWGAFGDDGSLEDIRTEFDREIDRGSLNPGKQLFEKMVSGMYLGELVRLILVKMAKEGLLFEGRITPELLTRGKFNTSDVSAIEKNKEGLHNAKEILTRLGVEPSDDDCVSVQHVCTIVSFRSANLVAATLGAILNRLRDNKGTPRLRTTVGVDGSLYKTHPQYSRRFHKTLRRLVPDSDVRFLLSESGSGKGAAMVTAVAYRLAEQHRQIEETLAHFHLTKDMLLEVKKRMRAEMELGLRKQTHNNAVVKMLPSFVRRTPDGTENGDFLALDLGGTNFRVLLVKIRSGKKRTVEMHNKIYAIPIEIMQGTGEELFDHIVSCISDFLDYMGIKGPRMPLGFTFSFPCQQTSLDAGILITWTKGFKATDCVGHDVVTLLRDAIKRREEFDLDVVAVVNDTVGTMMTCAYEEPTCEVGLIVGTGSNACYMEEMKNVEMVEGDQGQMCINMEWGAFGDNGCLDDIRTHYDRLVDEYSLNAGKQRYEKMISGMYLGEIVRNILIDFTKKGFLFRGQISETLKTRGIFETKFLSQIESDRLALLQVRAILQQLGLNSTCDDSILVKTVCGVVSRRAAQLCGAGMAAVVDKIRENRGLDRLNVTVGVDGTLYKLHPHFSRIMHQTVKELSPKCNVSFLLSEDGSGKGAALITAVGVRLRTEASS

[10] = target: T2, Hexokinase HKDC1; assay: SAR analysis of small molecule inhibitors of hexokinase domain containing I (HKDC1). [Related pubchem assays (depositor defined):AID493160, AID493190]; assay type: functional
[11] = target: T3, Hexokinase-1; assay: SAR analysis of small molecule inhibitors of hexokinase domain containing I (HKDC1) in the hexokinase 1 selectivity assay. [Related pubchem assays (depositor defined):AID493160, AID493190]; assay type: functional

Voltage-gated inwardly rectifying potassium channel KCNH2, sequence (Q12809 whole entry): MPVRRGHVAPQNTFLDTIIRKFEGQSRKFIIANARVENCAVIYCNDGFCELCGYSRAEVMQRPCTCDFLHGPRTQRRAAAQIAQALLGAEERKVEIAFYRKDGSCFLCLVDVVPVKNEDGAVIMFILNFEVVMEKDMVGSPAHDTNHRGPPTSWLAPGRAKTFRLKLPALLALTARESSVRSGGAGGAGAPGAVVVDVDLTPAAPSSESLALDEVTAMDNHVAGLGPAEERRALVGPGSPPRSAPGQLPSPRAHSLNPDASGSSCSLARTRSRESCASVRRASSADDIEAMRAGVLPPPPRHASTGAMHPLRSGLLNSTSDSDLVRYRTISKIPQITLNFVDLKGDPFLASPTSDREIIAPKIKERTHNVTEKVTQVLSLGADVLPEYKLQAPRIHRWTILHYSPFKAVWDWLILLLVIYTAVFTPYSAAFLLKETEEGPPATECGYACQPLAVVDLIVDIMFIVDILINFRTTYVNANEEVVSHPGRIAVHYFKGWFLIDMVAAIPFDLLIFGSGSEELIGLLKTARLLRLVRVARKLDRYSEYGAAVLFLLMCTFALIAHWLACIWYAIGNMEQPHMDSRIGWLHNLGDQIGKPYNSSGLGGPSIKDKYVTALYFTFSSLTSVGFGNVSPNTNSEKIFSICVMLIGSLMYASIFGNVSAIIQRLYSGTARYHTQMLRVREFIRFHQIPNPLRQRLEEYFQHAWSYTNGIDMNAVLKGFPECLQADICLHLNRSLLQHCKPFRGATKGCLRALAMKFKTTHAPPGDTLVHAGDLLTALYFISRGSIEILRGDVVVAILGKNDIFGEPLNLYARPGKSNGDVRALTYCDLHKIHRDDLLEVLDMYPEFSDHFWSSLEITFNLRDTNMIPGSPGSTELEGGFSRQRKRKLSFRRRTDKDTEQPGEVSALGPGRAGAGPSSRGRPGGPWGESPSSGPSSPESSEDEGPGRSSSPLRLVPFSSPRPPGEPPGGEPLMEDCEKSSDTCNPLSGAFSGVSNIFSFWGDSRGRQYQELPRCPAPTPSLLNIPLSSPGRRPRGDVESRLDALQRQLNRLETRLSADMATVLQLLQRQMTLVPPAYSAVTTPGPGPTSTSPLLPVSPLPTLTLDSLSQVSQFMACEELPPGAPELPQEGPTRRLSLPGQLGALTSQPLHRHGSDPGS

Structure (SMILES): CC(C)COC(=O)COc1cc(Cl)c(Cl)cc1Cl
AC50 [1]: 39.8 µM (inconclusive)

Structure (SMILES): CN(Cc1ccccc1)c1ncnc2ccc(Br)cc12
AC50 [2]: 4.49 µM (active)
AC50 [3]: 115 µM (active)

Structure (SMILES): CN1CCN(C(=S)c2cn(Cc3ccc(Br)cc3)c3ccccc23)CC1
AC50 [4]: 48.2 µM (active)

Structure (SMILES): CCOC(=O)Cn1cc([N+](=O)[O-])nc1[N+](=O)[O-]
AC50 [5]: 29.5 µM (active)
AC50 [6]: > 11 µM (active)
AC50 [7]: > 11 µM (active)

IC50 [8]: > 80 µM (inactive)
IC50 [9]: > 80 µM (inactive)
Structure (SMILES): COc1cc2c(cc1OC)-c1cc(NCCO)nc(=O)n1CC2

IC50 [10]: > 80 µM (inactive)
IC50 [11]: > 80 µM (inactive)
Structure (SMILES): O=c1c2ccccc2nc(/C=C/c2cccnc2)n1Cc1ccc(Cl)cc1
